According to patent US7829688B2, “Peptides of CaV2.2 that inhibit pain” (The Board of Regents of the University of Texas System, priority 2004, dated 2010):
Ends that are not written are not given here.

Tests used:
[1] = system: GST-Mint1-PDZ1/2 protein; experiment: ALPHA (AlphaScreen) assay of bio-NC peptide association with GST-Mint1-PDZ1/2; assay type: binding; conditions: with GST-Mint1-PDZ-1/2, 189 nM concentration
[2] = system: GST-Mint1-PDZ1/2 protein; experiment: HTRF assay of bio-NC peptide association with GST-Mint1-PDZ1/2; assay type: binding; conditions: 1000 nM with 1000 nM GST-Mint1-PDZ1/2
[3] = system: mature hippocampal neuronal cultures; experiment: FM1-43 imaging, double-staining protocol (synaptic function); assay type: cell-based; conditions: neurons incubated with 50 μM peptide for 15 min; 90 mM KCl stimulation
Source text: FIGS. 3A-D—Effects of R9-QDHWC peptides on synaptic function. Double-staining protocol is shown on the top. Results of first and second destaining are shown for representative puncta for control neurons (FIG. 3A), for neurons loaded with R9 peptide (FIG. 3B) and for neurons loaded with R9-QDHWC peptide (FIG. 3C). An average d2/d1 ratios are compared for all 3 groups of neurons (FIG. 3D).
An FM1-43 imaging was used to study synaptic effects of R9-QDHWC competitive peptide that corresponds to Mint-PDZ binding site on Cav2.2 subunit. In these experiments we adapted double-staining protocol from (Reuter, 1995). First the mature hippocampal neuronal cultures were stained with FM1-43 dye for 90 sec in the presence of 47 mM KCl (FIG. 3, top). Following staining and washout of the dye (10 min) the neurons were stimulated by 90 mM KCl and the initial rate of destaining (d1) was measured at each puncta (FIG. 3, top). After completion of the first destaining protocol, the same neuronal culture was re-stained with FM1-43 for 90 sec in the presence of 47 mM KCl. […] The initial rate of destaining (d2) was once again measured at each puncta (FIG. 3, top).
To compare the results obtained during first and second destaining protocols and to minimize puncta-to-puncta variability, the inventors calculated the d2/d1 ratios for each puncta.

[4] = system: formalin response; experiment: Formalin assay in rats after i.v. (tail vein) injection of peptide; assay type: in vivo; conditions: rat, tail vein injection 1 mM
Experimental: FIG. 2—Supression of phase II, but not phase I formalin response in rats injected with R9-QDHWC peptide. The effect of i.v. administration of PBS, R9 (1 mM) or R9-QDHWC (1 mM) on phase I and phase II of the formalin assay. Phase I represents the period from 0-10 min following formalin injection and phase II represents the period from 11-60 min following formalin injection. N=4-7 rats per group. *** indicates a significant difference when compared to PBS injection (p<0.01).
As is shown in FIG. 2, the peptide R9-QDHWC (full sequence RRRRRRRRRQDHWC; SEQ ID NO_also inhibits phage II but not phase I responses in the rat formalin model. Male Sprague Dawley rats (175-225 gm) received a tail vein injection of either PBS, R9 (1 mM), or R9-QDHWC (1 mM) following which they were placed in a plexiglass observation chamber to allow for acclimation. Thirty minutes following the tail vein injection, the dorsal surface of one hind paw was injected with 50 ul of a 5% formalin solution. Observers, blind to drug treatment, scored the number of biting, licking, and scratching behaviors of the injected hindlimb and paw. Data were analyzed with SigmaStat Software (SPSS, Inc. v. 2.03) using ANOVA followed by a Tukey post hoc analysis.

[5] = system: formalin response; experiment: Formalin assay in mouse, test compound injected into the hindpaw; assay type: in vivo; conditions: hindpaw injection
Experimental: FIGS. 1A & 1B—Supression of phase II, but not phase I formalin response in mouse injected with R9-NC peptide. FIG. 1A. Sequence of R9-NC peptide. FIG. 1B. Results of formalin assay in control mouse (n=8) and mouse injected with R9-NC 60 min prior to formalin injection (n=8). Phase I response (1-10 min from formalin injection) and phase II response (11-60 min from formalin injection) are shown.
First, animals are injected with a 10 μM (20 μl) solution of the test compound (dissolved in PBS) in the dorsal surface of the hindpaw. One hour following the injection of the test compound, animals receive a formalin injection (20 μl of a 5% solution) into the dorsal surface of the hindpaw. The contralateral paw is not injected. Following injection, animals are immediately transferred to a plexiglass observation cage. Each animal is observed for a total of 60 minutes following formalin injection. The period spent biting, scratching, or licking the injected hindpaw is recorded (pain score). Data is presented as cumulative time spent biting, scratching, and licking in phase I (0-10 min) and phase II (11-60 min).
One hour following delivery of either saline (control) or R9-NC into the dorsum of the hindpaw, formalin (20 μl of a 5% solution) was injected into the same hindpaw. No effect of R9-NC on phase I of the formalin assay was observed.

O=C(O)CCCC[C@@H]1SC[C@@H]2NC(=O)N[C@@H]21 [Biotin]
ALPHA signal [1]: less than 1,500
HTRF ratio [2]: less than 0.04

RRRRRRRRR [R9, peptide permeant motif, used as control peptide]
average d2/d1 ratio (initial rates of FM1-43 destaining) [3]: 0.55±0.15
formalin induced phase II behaviors vs PBS ([4]; 30 min before formalin, phase II 11-60 min): not significantly different

RRRRRRRRRHSYHHPDQDHWC [R9-NC]
side effect when injected in the hindpaw [5]: no untoward side effect

RRRRRRRRRQDHWC [R9-QDHWC, RRRRRRRRRQDHWC]
adverse effects of delivery of the peptide to rats [4]: no apparent adverse effects
